# PubChem BioAssay AID1963839 (Molecular Pharmacology Branch, DTP, NCI, 2024)
# Test system: 817829-284-R-J1-PDC complex spheroid viability
# Assay: Anticancer human tumor 817829-284-R-J1-PDC patient-derived colon adenocarcinoma cell line growth inhibition [POLQ]
# Details: for IC50: curve of first compound; for viability, T/C: stronger effect = lower value
# Protocol: Multicellular complex tumor spheroid response to Polymerase (POL) inhibitors (novobiocin, ART-558, RP6685) in combination with a variety of drugs and investigational agents in selected tumor cell lines
# The POL inhibitors (novobiocin, ART-558, and RP6685) were evaluated both individually and in combination with standard of care and investigational anticancer small molecules within a complex spheroid model of solid tumors. . Complex spheroids include a stromal component modeled by human endothelial cells (HUVEC) and fibroblasts modeled by human mesenchymal stem cells (MSCs). The concentration ranges selected for each drug and investigational agent were based upon clinically achievable concentrations if the clinical Cmax of the agent was known.
# Compounds. The drugs and investigational agents: novobiocin (NSC847541), ART-558 (NSC835418), RP-6685 (NSC848927), peposertib (NSC802822), ceralasertib (NSC780249), elimusertib (NSC800525), camonsertib (NSC841442), AZD-1390 (NSC803789), olaparib (NSC753686), talazoparib (NSC767125), rucaparib (NSC756644), sotorasib (NSC818433), MRTX-1133 (NSC836407), SN-38 (NSC673596), topotecan (NSC609699), epotoside (NSC141540), doxorubicin (NSC123127), gemcitabine (NSC613327), 5-fluorouracil (NSC19893), paclitaxel (NSC125973), vemurafenib (NSC761431), MSA-2 (NSC828583), SN-011 (NSC837082), adavosertib (NSC754352), prexasertib (NSC758257), carboplatin (NSC241240) and oxaliplatin (NSC266046), were obtained from the National Cancer Institute (NCI) Developmental Therapeutics Program Chemical Repository (21). The FDA-approved anticancer drug set is available from the Developmental Therapeutics Program at https://dtp.cancer.gov/organization/dscb/obtaining/. […] The stock solutions were prepared in dimethyl sulfoxide (DMSO, Sigma-Aldrich, St. Louis, MO, cat. D2650), except for the platinum compounds which were prepared in saline (Quality Biological, Gaithersburg, MD, cat. 114-055-101), at 800-fold the tested concentration and stored at -70 degrees C prior to their use. All drugs and investigational agents were tested over a range starting from a high concentration at or near the clinical Cmax and decreasing in half-log increments. If the clinical Cmax for an agent had not been determined, the highest concentration tested was 10 microM, except for SN-38, which was tested at a high concentration of 1 microM.
# Cell Culture. All cells were maintained in an incubator at 37 degrees C and 5% CO2 with 95% humidity. The PDC lines were cultured according to standard operating procedures established by the NCI PDMR (https://pdmr.cancer.gov). Table 3 of the manuscript, lists the cell lines along with the number of the three cell types plated to form the mct-spheroids and media for tumor cell growth. After thawing, all PDC lines, except 997537-175-T-J1-PDC and 415267-285-R-J2-PDC, were cultured in Matrigel-coated flasks prepared with a working solution of 1X Ham's F-12 nutrient mix, without supplementation (Thermo Fisher Scientific, cat. 11765054), 100 U/mL penicillin-streptomycin (Thermo Fisher Scientific, cat. 15140122), and 2.5% Matrigel (Corning Inc., Corning, NY, cat. 354248) for the first three passages. The two PDC lines 997537-175-T-J1-PDC and 415267-285-R-J2-PDC were cultured on uncoated flasks. The 857933-349-R-J2-PDC line was cultured in 6C/Colon 1B media containing advanced DMEM/F-12 (Thermo Fisher Scientific, cat. 12634028), 10 mM HEPES (Thermo Fisher Scientific, cat. 15630080), 1X GlutaMAX supplement (Thermo Fisher Scientific, cat. 35050061), 0.1 mg/mL primocin (InvivoGen, San Diego, CA, cat. ant-pm-2), 10% defined fetal bovine serum, heat inactivated (HyClone Laboratories Inc., Logan, UT, cat. SH30070.03HI), 50% L-WRN conditioned media (ATCC, cat. CRL-3276), 1.25 mM N-Acetyl-L-cysteine (Sigma-Aldrich, cat. A9165), 10 mM nicotinamide (Sigma-Aldrich, cat. N0636), 1X B-27 supplement (Thermo Fisher Scientific, cat. 17504044), 1X N-2 supplement (Thermo Fisher Scientific, cat. […]
# [1] = second compound 0.0316 µM, first compound 0.0316 µM
# [2] = second compound 0.0316 µM, first compound 0.1 µM
# [3] = second compound 0.0316 µM, first compound 0.316 µM
# [4] = second compound 0.0316 µM, first compound 1 µM
# [5] = second compound 0.0316 µM, first compound 3.16 µM
# [6] = second compound 0.0316 µM, first compound 10 µM
# [7] = second compound 0.1 µM, first compound 0.0316 µM
# [8] = second compound 0.1 µM, first compound 0.1 µM
# [9] = second compound 0.1 µM, first compound 0.316 µM
# [10] = second compound 0.1 µM, first compound 1 µM
# [11] = second compound 0.1 µM, first compound 3.16 µM
# [12] = second compound 0.1 µM, first compound 10 µM
# [13] = second compound 0.316 µM, first compound 0.0316 µM
# [14] = second compound 0.316 µM, first compound 0.1 µM
# [15] = second compound 0.316 µM, first compound 0.316 µM
# [16] = second compound 0.316 µM, first compound 1 µM
# [17] = second compound 0.316 µM, first compound 3.16 µM
# [18] = second compound 0.316 µM, first compound 10 µM
# [19] = second compound 1 µM, first compound 0.0316 µM
# [20] = second compound 1 µM, first compound 0.1 µM
# [21] = second compound 1 µM, first compound 0.316 µM
# [22] = second compound 1 µM, first compound 1 µM
# [23] = second compound 1 µM, first compound 3.16 µM
# [24] = second compound 1 µM, first compound 10 µM
# [25] = second compound 3.16 µM, first compound 0.0316 µM
# [26] = second compound 3.16 µM, first compound 0.1 µM
# [27] = second compound 3.16 µM, first compound 0.316 µM
# [28] = second compound 3.16 µM, first compound 1 µM
# [29] = second compound 3.16 µM, first compound 3.16 µM
# [30] = second compound 3.16 µM, first compound 10 µM
# [31] = second compound 10 µM, first compound 0.0316 µM
# [32] = second compound 10 µM, first compound 0.1 µM
# [33] = second compound 10 µM, first compound 0.316 µM
# [34] = second compound 10 µM, first compound 1 µM
# [35] = second compound 10 µM, first compound 3.16 µM
# [36] = second compound 10 µM, first compound 10 µM
# 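Also: spheroids exposed to compounds for 7 days.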
# 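For viability, T/C in this document: 100% = DMSO vehicle-treated spheroids.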
smiles,measurement,setting,value
CC(C)n1c(=O)n(C)c2cnc3cc(F)c(-c4ccc(OCCCN5CCCCC5)nc4)cc3c21 + Cc1cccc(N(C)C(=O)C2C(O)CCN2c2nc(C)cc(C(F)(F)F)c2C#N)c1,IC50,second compound 0.0316 µM,6.74 µM
same,IC50,second compound 0.1 µM,7.64 µM
same,IC50,second compound 0.316 µM,8.32 µM
same,IC50,second compound 1 µM,5.97 µM
same,IC50,second compound 3.16 µM,8.23 µM
same,IC50,second compound 10 µM,6.08 µM
same,"viability, T/C",[1],91.7%
same,"viability, T/C",[2],77.1%
same,"viability, T/C",[3],96.6%
same,"viability, T/C",[4],86.3%
same,"viability, T/C",[5],84.3%
same,"viability, T/C",[6],32.1%
same,"viability, T/C",[7],73.6%
same,"viability, T/C",[8],107%
same,"viability, T/C",[9],91.6%
same,"viability, T/C",[10],76.8%
same,"viability, T/C",[11],106%
same,"viability, T/C",[12],37.5%
same,"viability, T/C",[13],87.3%
same,"viability, T/C",[14],83.3%
same,"viability, T/C",[15],94.4%
same,"viability, T/C",[16],87.6%
same,"viability, T/C",[17],83%
same,"viability, T/C",[18],43.8%
same,"viability, T/C",[19],99.7%
same,"viability, T/C",[20],86.5%
same,"viability, T/C",[21],99.1%
same,"viability, T/C",[22],72.6%
same,"viability, T/C",[23],73.7%
same,"viability, T/C",[24],34.4%
same,"viability, T/C",[25],93.8%
same,"viability, T/C",[26],70.6%
same,"viability, T/C",[27],78.1%
same,"viability, T/C",[28],100%
same,"viability, T/C",[29],70.5%
same,"viability, T/C",[30],45.8%
same,"viability, T/C",[31],85.7%
same,"viability, T/C",[32],81.6%
same,"viability, T/C",[33],74%
same,"viability, T/C",[34],67.8%
same,"viability, T/C",[35],79%
same,"viability, T/C",[36],28.9%
CC1COCCN1c1cc(-c2ccnn2C)c2ccnc(-c3ccn[nH]3)c2n1 (centres undefined) + Cc1cccc(N(C)C(=O)C2C(O)CCN2c2nc(C)cc(C(F)(F)F)c2C#N)c1,IC50,second compound 0.0316 µM,< 0.0316 µM
same,IC50,second compound 0.1 µM,< 0.0316 µM
same,IC50,second compound 0.316 µM,< 0.0316 µM
same,IC50,second compound 1 µM,< 0.0316 µM
same,IC50,second compound 3.16 µM,0.0327 µM
same,IC50,second compound 10 µM,< 0.0316 µM
same,"viability, T/C",[1],36.6%
same,"viability, T/C",[2],19.1%
same,"viability, T/C",[3],6.76%
same,"viability, T/C",[4],4.35%
same,"viability, T/C",[5],3.09%
same,"viability, T/C",[6],2.85%
same,"viability, T/C",[7],33.4%
same,"viability, T/C",[8],16.9%
same,"viability, T/C",[9],7.78%
same,"viability, T/C",[10],4.15%
same,"viability, T/C",[11],3.55%
same,"viability, T/C",[12],2.55%
same,"viability, T/C",[13],45.2%
same,"viability, T/C",[14],15.3%
same,"viability, T/C",[15],6.75%
same,"viability, T/C",[16],4.29%
same,"viability, T/C",[17],3.67%
same,"viability, T/C",[18],2.6%
same,"viability, T/C",[19],33.9%
same,"viability, T/C",[20],13.1%
same,"viability, T/C",[21],5.41%
same,"viability, T/C",[22],4.86%
same,"viability, T/C",[23],3.3%
same,"viability, T/C",[24],2.87%
same,"viability, T/C",[25],50.8%
same,"viability, T/C",[26],21.9%
same,"viability, T/C",[27],5.75%
same,"viability, T/C",[28],3.57%
same,"viability, T/C",[29],3.34%
same,"viability, T/C",[30],3.14%
same,"viability, T/C",[31],36.6%
same,"viability, T/C",[32],20%
same,"viability, T/C",[33],7.43%
same,"viability, T/C",[34],4.51%
same,"viability, T/C",[35],3.57%
same,"viability, T/C",[36],2.62%
